What all share (assay type): cell-based, hepatitis B virus
Experiment [1] relates to HBV cccDNA. Briefly: HBV cccDNA levels by Hirt extraction and Southern blotting. Conditions: HBV-infected HepG2-hNTCP-C9 cells, 10 days; 20 μM Juglone or PiB, 30 μM ATRA, 6,7,4′-THIF or KPT-6566, 40 μM EGCG. The procedure:
Mock-infected HepG2-hNTCP-C9 cells (lane 1) or HBV-infected HepG2-hNTCP-C9 cells (lanes 2–3) were treated with solvent (lane 2) or 20 μM Juglone, 20 μM PiB, 30 μM ATRA, 30 μM 6,7,4′-THIF, 30 μM KPT6566, or 40 μM EGCG (lane 3) for 10 days. HBV cccDNA levels were determined by the Hirt extraction method, as described previously ([Saeed et al., 2019]). Data are presented from three independent experiments.
(§1) HBV cccDNA synthesis was examined using the protein-free Hirt cccDNA extraction method. Briefly, HBV-infected PIN1 or PIN4 KD cells at approximately 100% confluency were incubated for 10 days, lysed with 10 mM EDTA and 10 mM Tris–HCl [pH 7.5] containing 0.6% SDS-TE buffer, treated for 16 h by adding 5 M NaCl to the final concentration of 1 M, and precipitated by centrifugation for 30 min at 14,500 × g. The supernatants were subjected to multiple phenol extractions (two times) followed by cccDNA extraction via phenol/chloroform. The supernatant containing cccDNA was precipitated by ethanol and furthermore analyzed by Southern blotting. The HBV cccDNA ChIP was performed using cccDNA-specific primers and analyzed by PCR (GeneAmp 2,700, Applied Biosystems), as described previously ([Bichko et al., 1985]; [Piracha et al., 2018], [2020]; [Saeed et al., 2019], [2021]). From the clinical specimens, HBV cccDNA levels were examined, as described previously ([Zhang et al., 2017]), using 251F 5′-GAC TYG TGG TGG ACT TCT C-3′ and 1190R 5′-TCA GCA AAY ACT YGG CA-3′ set of primers.

The subject of experiment [2] is HBV replication in Huh7, HepAD38, HepG2, and HepG2.2.15 cells.
Experiment [3] has as its system HBV cccDNA. As to the kind of experiment: Chromatin immunoprecipitation (ChIP) in HBV-infected HepG2-hNTCP-C9-PIN4 KD cells. Conditions: 20 μM Juglone or PiB, 30 μM ATRA, 6,7,4′-THIF or KPT6566, 40 μM EGCG, vs solvent. As for the experimental part:
Chromatin immunoprecipitation (ChIP) was performed in HBV-infected HepG2-hNTCP-C9 PIN1 or PIN4 KD cells to determine the comparative effects of these parvulins on cccDNA (Figure 11D). The chromatins were prepared and immunoprecipitated with IgG or anti-PIN1, HBc, PIN4, acetylated H3 (anti-AcH3), RNA polymerase-II (anti-RNA Pol-II), and histone H3 antibodies and furthermore analyzed by semiquantitative PCR (GeneAmp PCR 2700, Applied Biosystems; [Bichko et al., 1985]; [Saeed et al., 2019], [2021]; [Piracha et al., 2020]). In contrast to endogenous PIN1, the endogenous PIN4 was recruited to HBV cccDNA. Of note, upon PIN1 KD, the recruitment of HBc protein to the cccDNA remains unchanged.
(A–F) HepG2-hNTCP-C9-PIN4 KD cells were mock-infected (lane 1) or HBV infected (lanes 2–3) and treated with solvent (lane 2), or parvulin inhibitors (A) 20 μM Juglone, (B) 20 μM PiB, (C) 30 μM ATRA, (D) 30 μM 6,7,4′-THIF, (E) 30 μM KPT6566, and (F) 40 μM EGCG. The chromatin solutions and ChIP were performed in HBV-infected HepG2-hNTCP-C9-PIN4 KD cells, as described in the “Material and Methods” section and were subjected to immunoprecipitation with normal rabbit polyclonal IgG, anti-PIN1, anti-PIN4, anti-RNA Pol II, anti-acetyl H3, or anti-H3 antibodies. The immunoprecipitated chromatins were analyzed by PCR. The presented data are representative of three independent experiments.
as §1

[4] abbreviates: 72 h, 20 μM Juglone or PiB, 30 μM ATRA, 6,7,4′-THIF or KPT-6566, 40 μM EGCG, vs solvent.

Where two headings read alike, the source gives them in different places.

On to `O=c1c(-c2ccc(O)cc2)coc2cc(O)c(O)cc12` [6,7,4′-THIF, 6,7-dihydroxy-3-(4-hydroxyphenyl)-4H-chromen-4-one], for which the “HBV cccDNA levels” value in the experiment with HBV cccDNA [1] is “without affecting HBV cccDNA levels”. Moreover, in experiment [2] (setting [4]), the “HBV RNA levels / HBV transcription (Northern blotting)” value (“HBV RNA levels / HBV transcription” below) is on record as “significantly aborted”; the “HBc expression, core particle synthesis and HBV DNA levels” value (“HBc expression” below) is reported as “significantly aborted”. Moreover, the “recruitments of endogenous PIN4 and HBc onto HBV cccDNA” value (“recruitments” below) in the experiment on HBV cccDNA [3] is “reduced”.
For `CC1=C(/C=C/C(C)=C/C=C/C(C)=C/C(=O)O)C(C)(C)CCC1` [ATRA, All-trans-retinoic acid], the “HBV cccDNA levels” value in the experiment with HBV cccDNA [1] is on record as “without affecting HBV cccDNA levels”. Moreover, in experiment [2], the “HBV RNA levels / HBV transcription” value was “reduced”; the “HBc expression” value is recorded as “reduced”. Also, the “recruitments” value in the experiment on HBV cccDNA [3] was “reduced”.
For the compound `O=C(O[C@@H]1Cc2c(O)cc(O)cc2O[C@@H]1c1cc(O)c(O)c(O)c1)c1cc(O)c(O)c(O)c1` [EGCG, Epigallocatechin gallate], the “HBV cccDNA levels” value in the experiment on HBV cccDNA [1] is given as “without affecting HBV cccDNA levels”. Also, in experiment [2] (setting [4]), the “HBV RNA levels / HBV transcription” value was “lower levels”; the “HBc expression” value is recorded as “reduced significantly”. The “recruitments” value in the experiment with HBV cccDNA [3] was “reduced”.
In the same order, the values of `O=C1C=CC(=O)c2c(O)cccc21` [Juglone, 5-hydroxyl-1,4-naphthoquinone] are “without affecting HBV cccDNA levels”, “significantly decreased”, “dramatically reduced” and “reduced”.
Regarding `CC(C)(C)c1ccc(S(=O)(=O)N=C2C=C(SCC(=O)O)C(=O)c3ccccc32)cc1` [KPT6566, 2-[[4-[[[4-(1,1-dimethylethyl)phenyl]sulfonyl]imino]-1,4-dihydro-1-oxo-2-naphthalenyl]thio] acetic acid], the “HBV cccDNA levels” value in the experiment with HBV cccDNA [1] is given as “without affecting HBV cccDNA levels”. Besides, in experiment [2] (setting [4]), the “HBV RNA levels / HBV transcription” value is given as “restricted”; the “HBc expression” value is listed as “restricted”. For the same compound, in the experiment on HBV cccDNA [3], the “recruitments” value was “reduced”.
In the case of `CCOC(=O)CN1C(=O)c2ccc3c4c(ccc(c24)C1=O)C(=O)N(CC(=O)OCC)C3=O` [PiB, 1,3,6,8-tetrahydro-1,3,6,8-tetraoxo-benzo [lmn][3,8] phenanthroline-2,7-diacetic acid, 2,7-diethyl ester], in the experiment on HBV cccDNA [1], the “HBV cccDNA levels” value is “without affecting HBV cccDNA levels”. Moreover, in experiment [2] (setting [4]), the “HBV RNA levels / HBV transcription” value is given as “significantly reduced”; the “HBc expression” value is listed as “notably abrogated”. Also, the “recruitments” value with HBV cccDNA [3] is on record as “reduced”.

Values taken from paper PMC9905731, “PIN1 and PIN4 inhibition via parvulin impeders Juglone, PiB, ATRA, 6,7,4′-THIF, KPT6566, and EGCG thwarted hepatitis B virus replication” (Frontiers in Microbiology, 2023).
